# Measured values: ChEMBL document CHEMBL1157124, “Synthesis and anticancer evaluation of alpha-lipoic acid derivatives” (Bioorg Med Chem Lett, 2010)
# How the values were obtained:
# Format in all cases: functional
# NCI-H460 [1] = assay: Cytotoxicity against human NCI-H460 cells assessed as growth inhibition at 0.1 ug/ml after 24 hrs by MTT assay; settings: NCI-H460, 24 h, read-out: GI
# [2] = Cytotoxicity against human HO8910 cells assessed as growth inhibition at 100 ug/ml after 24 hrs by MTT assay; settings: HO-8910, 24 h, read-out: GI
# [3] = Cytotoxicity against human HO8910 cells assessed as growth inhibition at 10 ug/ml after 24 hrs by MTT assay; settings: HO-8910, 24 h, read-out: GI
# [4] = Cytotoxicity against human HO8910 cells assessed as growth inhibition at 1 ug/ml after 24 hrs by MTT assay; settings: HO-8910, 24 h, read-out: GI
# [5] = Cytotoxicity against human HO8910 cells assessed as growth inhibition at 0.1 ug/ml after 24 hrs by MTT assay; settings: HO-8910, 24 h, read-out: GI
# KB [6] = assay: Cytotoxicity against human KB cells assessed as growth inhibition at 100 ug/ml after 24 hrs by MTT assay; settings: read-out: GI
# KB [7] = assay: Cytotoxicity against human KB cells assessed as growth inhibition at 10 ug/ml after 24 hrs by MTT assay; settings: read-out: GI
# KB [8] = assay: Cytotoxicity against human KB cells assessed as growth inhibition at 1 ug/ml after 24 hrs by MTT assay; settings: read-out: GI
# KB [9] = assay: Cytotoxicity against human KB cells assessed as growth inhibition at 0.1 ug/ml after 24 hrs by MTT assay; settings: read-out: GI
# Bel-7402 [10] = assay: Cytotoxicity against human Bel7402 cells assessed as growth inhibition at 100 ug/ml after 24 hrs by MTT assay; settings: Bel-7402, 24 h, read-out: GI
# Bel-7402 [11] = assay: Cytotoxicity against human Bel7402 cells assessed as growth inhibition at 10 ug/ml after 24 hrs by MTT assay; settings: Bel-7402, 24 h, read-out: GI
# Bel-7402 [12] = assay: Cytotoxicity against human Bel7402 cells assessed as growth inhibition at 1 ug/ml after 24 hrs by MTT assay; settings: Bel-7402, 24 h, read-out: GI
# Bel-7402 [13] = assay: Cytotoxicity against human Bel7402 cells assessed as growth inhibition at 0.1 ug/ml after 24 hrs by MTT assay; settings: Bel-7402, 24 h, read-out: GI
# NCI-H460 [14] = assay: Cytotoxicity against human NCI-H460 cells assessed as growth inhibition at 100 ug/ml after 24 hrs by MTT assay; settings: NCI-H460, 24 h, read-out: GI
# NCI-H460 [15] = assay: Cytotoxicity against human NCI-H460 cells assessed as growth inhibition at 10 ug/ml after 24 hrs by MTT assay; settings: NCI-H460, 24 h, read-out: GI
# NCI-H460 [16] = assay: Cytotoxicity against human NCI-H460 cells assessed as growth inhibition at 1 ug/ml after 24 hrs by MTT assay; settings: NCI-H460, 24 h, read-out: GI
Compound,inhibition of growth at 0.1 µg/mL (NCI-H460 [1]) [%],inhibition of growth at 100 µg/mL [2] [%],inhibition of growth at 10 µg/mL [3] [%],inhibition of growth at 1 µg/mL [4] [%],inhibition of growth at 0.1 µg/mL [5] [%],inhibition of growth at 100 µg/mL (KB [6]) [%],inhibition of growth at 10 µg/mL (KB [7]) [%],inhibition of growth at 1 µg/mL (KB [8]) [%],inhibition of growth at 0.1 µg/mL (KB [9]) [%],inhibition of growth at 100 µg/mL (Bel-7402 [10]) [%],inhibition of growth at 10 µg/mL (Bel-7402 [11]) [%],inhibition of growth at 1 µg/mL (Bel-7402 [12]) [%],inhibition of growth at 0.1 µg/mL (Bel-7402 [13]) [%],inhibition of growth at 100 µg/mL (NCI-H460 [14]) [%],inhibition of growth at 10 µg/mL (NCI-H460 [15]) [%],inhibition of growth at 1 µg/mL (NCI-H460 [16]) [%]
O=C(CCCCC(S)CCS)Nc1ccccc1 (stereo not drawn),5.5,13.7,5.49,6.38,7.37,15.8,8.62,11.6,9.49,7.67,3.72,1.32,0.85,25.4,8.37,4.3
CC(=O)SCCC(CCCCC(=O)Nc1ccc(Cl)cc1)SC(C)=O (stereo not drawn),9.89,58.8,1.47,0.35,1.81,72,18.1,14.8,11.4,45.5,5.78,3.07,9.96,47.3,14.8,15.4
O=C(CCCCC(S)CCS)Nc1ccc(F)cc1 (stereo not drawn),5.64,22.2,6.81,12.2,8.11,28.2,13.3,8.84,6.78,11.7,6.14,–,–,41.6,18.1,6.84
O=C(CCCCC(S)CCS)Nc1cccc(C(F)(F)F)c1 (stereo not drawn),11.9,34.8,8.86,13.7,10.8,30.5,1.97,–,8.41,25.3,1.21,1.66,2.85,32.1,11.4,8.26
O=C(CCCCC1CCSS1)Nc1ccccc1Cl (stereo not drawn),8,–,4.66,7.74,8.17,0.72,–,–,5.11,4.74,–,5.33,6.83,3.38,14.6,10.1
O=C(CCCCC(CCSC(=O)c1ccccc1)SC(=O)c1ccccc1)Nc1ccccc1Cl (stereo not drawn),15.1,–,1.33,2.35,–,–,2.53,3.05,3.62,–,6.63,7.37,5.72,–,12.1,14.4
CC(=O)SCCC(CCCCC(=O)Nc1ccccc1)SC(C)=O (stereo not drawn),15.4,22.3,3.2,10.6,8.33,22.9,2.5,1.68,7.24,14.1,–,2.84,–,44.8,14.2,13.1
